pEC50: −log10 of the molar value. Values after ≈ are worked out from the molar mass of the structure shown.
Columns and labels:
[1] = biological target: human soluble guanylate cyclase alpha 1 and beta 1 subunits (sGC) (Homo sapiens (Human), UniProt Q02108+Q02153); assay: sGC cellular activator assay (cGMP, HTRF), in the presence and absence of 50% human serum; type: cell-based; conditions: CHO cells stably expressing human sGC alpha 1/beta 1, preincubated with 40 microM ODQ; cGMP by HTRF; Table 2 does not state whether with or without 50% human serum
human soluble guanylate cyclase alpha 1 and beta 1 subunits (sGC), sequence (Q02108 whole entry partner): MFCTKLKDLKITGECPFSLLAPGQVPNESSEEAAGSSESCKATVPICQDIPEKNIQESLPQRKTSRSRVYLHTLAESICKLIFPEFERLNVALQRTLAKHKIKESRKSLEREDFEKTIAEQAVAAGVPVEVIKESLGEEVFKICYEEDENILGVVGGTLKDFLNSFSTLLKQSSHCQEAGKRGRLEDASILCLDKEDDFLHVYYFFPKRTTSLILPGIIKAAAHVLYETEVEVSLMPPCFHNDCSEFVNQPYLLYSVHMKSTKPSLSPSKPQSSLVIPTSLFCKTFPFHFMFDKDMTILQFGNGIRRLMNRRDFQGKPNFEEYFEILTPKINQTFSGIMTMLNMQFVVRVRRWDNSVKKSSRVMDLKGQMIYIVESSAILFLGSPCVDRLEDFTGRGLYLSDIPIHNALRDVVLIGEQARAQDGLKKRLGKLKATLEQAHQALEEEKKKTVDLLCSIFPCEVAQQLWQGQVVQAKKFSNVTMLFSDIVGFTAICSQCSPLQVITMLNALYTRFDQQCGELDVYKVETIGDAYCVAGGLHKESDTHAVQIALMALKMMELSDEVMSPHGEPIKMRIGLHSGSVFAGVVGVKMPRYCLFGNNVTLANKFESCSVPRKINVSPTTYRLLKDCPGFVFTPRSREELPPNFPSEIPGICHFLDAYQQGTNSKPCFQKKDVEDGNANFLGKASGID
human soluble guanylate cyclase alpha 1 and beta 1 subunits (sGC), sequence (Q02153 whole entry): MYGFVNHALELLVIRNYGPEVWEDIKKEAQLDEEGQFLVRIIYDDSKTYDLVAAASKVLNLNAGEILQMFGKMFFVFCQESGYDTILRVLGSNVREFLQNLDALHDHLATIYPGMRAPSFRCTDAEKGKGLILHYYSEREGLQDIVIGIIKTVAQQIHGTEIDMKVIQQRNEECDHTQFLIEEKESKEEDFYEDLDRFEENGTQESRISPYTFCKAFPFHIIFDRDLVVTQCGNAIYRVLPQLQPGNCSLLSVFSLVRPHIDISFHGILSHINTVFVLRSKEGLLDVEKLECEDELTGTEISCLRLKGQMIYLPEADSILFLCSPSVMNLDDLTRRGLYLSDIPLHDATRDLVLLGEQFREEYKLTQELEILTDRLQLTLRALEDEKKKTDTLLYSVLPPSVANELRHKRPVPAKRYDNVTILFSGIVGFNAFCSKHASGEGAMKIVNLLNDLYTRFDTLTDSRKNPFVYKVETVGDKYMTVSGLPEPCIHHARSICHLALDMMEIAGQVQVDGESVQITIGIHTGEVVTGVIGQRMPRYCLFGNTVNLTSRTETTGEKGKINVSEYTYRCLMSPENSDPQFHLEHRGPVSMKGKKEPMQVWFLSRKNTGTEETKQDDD
Method: The sGC cellular activator assay is performed in the presence and absence of 50% human serum (HS) using Chinese hamster ovary cells that have been stably transfected to express the human soluble guanylate cyclase alpha 1 and beta 1 subunits (sGC). Cells are preincubated with 40 microM 1H-[1,2,4]oxadiazolo[4,3-a]quinoxalin-1-one (ODQ), an sGC inhibitor, for one h in buffer containing 0.1% bovine serum albumin and 3-isobutyl-1-methylxanthine (IBMX). Concentration response curves are prepared for test compounds in DMSO. An intermediate dilution of the compounds is performed in either buffer containing IBMX or type AB HS containing IBMX. Diluted compounds are added to cells and they are incubated at room temperature for thirty min. cGMP is measured using a CisBio homogeneous time resolved fluorescence kit and the EC50 is calculated for each compound.
Representative compounds of the present invention were tested for activity the above assay. Preferred compounds have an EC50 of <1,000 nM in the above assay and more preferred compounds have an EC50<200 nM.

[2] = Human liver microsome (HLM) metabolic stability assay; type: in vitro ADME; conditions: human liver microsomes
Method: The 5 time point, high-throughput human liver microsome (HLM) metabolic stability assay is designed to determine in vitro compound metabolism. Compounds are incubated with HLMs at a concentration of 1 uM, at 37° C., for a total of 60 min. The percent of compound remaining at 5, 15, 30, and 60 min is used to calculate the t1/2 (min), CLint (mL/min/kg), CLh (mL/min/kg), and % Qh. The assay is based on a 96-well format and can accommodate up to 92 compounds per plate (n=1).
Using the 96-well multi-channel head, the Biomek FX, equipped with a Peltier heating block/shaker, is programmed to accomplish the following steps: • 1. Pipette 175 uL of 1.15 mg/mL microsomes into each of the 96 conical inserts (Analytical Sales and Products, catalog number 96PL05) that fit into the plate of the Peltier heating block/shaker (the incubation plate) • 2. Add 5 uL of compounds from the assay plate to the microsomes and shake the mixture at 600 rpm at 42.1° C. for 10 min (a setting of 42.1° C. on the Peltier is required for the samples to incubate at 37° C.) • 3. After 10 min, prompt the user to add the NADPH plate to the deck and add 20 uL from the NADPH plate to the incubation plate to start the reaction • 4. Add 215 uL of 100%, cold acetonitrile containing an internal standard(s) to a 0 minute, 5 minute, 15 minute, 30 minute, and 60 minute “quench” plate • 5. At 0 min, 5 min, 15 min, 30 min, and 60 min into the incubation, aspirate 12 uL from the incubation mixture and add it to the quench solution to stop the reaction • 6. Add 185 uL HPLC grade water to each well of the 0, 5, 15, 30 and 60 minute quench plates to dilute compounds to the appropriate concentration for the mass spectrometer
After all time points are collected, the quench plates are sealed with 96-well pierceable plate mats or heat sealing foil and centrifuged at 3000 rpm for 15 min to pellet the microsomes.
The plates are analyzed using LC/MS/MS with electron spray ionization (ESI) and the previously determined MRM transitions. The LC method includes the following parameters:
Using an Excel template in Activitybase, the peak areas corresponding to 5, 15, 30 and 60 min are compared to the peak area at 0 min to calculate the percent of remaining compound using the following equation:
Percent compound remaining=(AUC at Time t min/AUC at Time 0 min)×100 where t=0, 5, 15, 30 or 60 min.
Time (min) is plotted against the natural logarithm (Ln) of the percent compound remaining to determine the slope. The slope is used to calculate t1/2 (min) using the equation, t1/2=0.693/slope.
Clh, Hepatic clearance • Hepatic flow*f(u)*Clint/(hepatic flow+f(u)*Clint)
Qh, % Hepatic blood flow • (Clh/Hepatic flow)*100
Preferred compounds have % Qh values of less than 24.

physchem = conditions: kinetic from dmso stock
[3] = pH 2.2, aqueous buffer, Solubility (pH 2.2)
[4] = pH 4.5, aqueous buffer, Solubility (pH 4.5)
[5] = pH 6.8, aqueous buffer, Solubility (pH 6.8)

Row | pEC50 [1] | Metabolic stability (Qh %), % hepatic blood flow [2] | solubility at 24 h (physchem; [3]) | solubility at 24 h (physchem; [4]) | solubility at 24 h (physchem; [5]) | Structure (SMILES)
1 | 7.89 | <24% | 120 µg/mL (≈ 207 µM) | 72.7 µg/mL (≈ 126 µM) | 71.7 µg/mL (≈ 124 µM) | CO[C@H]1CN(c2nc(-c3cccc(C)c3OCc3ccc4c(c3C)CCN(C3COC3)CC4)cs2)CC[C@H]1C(=O)O [Compound 287]
2 | 8.40 | <24% | 124 µg/mL (≈ 212 µM) | 89.4 µg/mL (≈ 153 µM) | 68.4 µg/mL (≈ 117 µM) | CO[C@@H]1CN(c2cccc(-c3cccc(C)c3OCc3ccc4c(c3C)CCN(C3CCOC3)CC4)n2)CC[C@@H]1C(=O)O (stereo partly shown) [Compound 283]
3 | 8.15 | 33% | 131 µg/mL (≈ 227 µM) | 69.1 µg/mL (≈ 120 µM) | 67.4 µg/mL (≈ 117 µM) | CO[C@H]1CN(c2nc(-c3cccc(C)c3OCc3ccc4c(c3)[C@@H](C)CN(C3COC3)CC4)cs2)CC[C@H]1C(=O)O [Compound 325]
4 | 6.63 | <24% | 123 µg/mL (≈ 215 µM) | 82.4 µg/mL (≈ 144 µM) | 69.9 µg/mL (≈ 122 µM) | CO[C@H]1CN(c2cccc(-c3cccc(C)c3OCc3ccc4c(c3C)CCN(C3COC3)CC4)n2)CC[C@@H]1C(=O)O [Compound 289]
5 | 7.36 | 30% | 120 µg/mL (≈ 199 µM) | 95 µg/mL (≈ 157 µM) | 89 µg/mL (≈ 147 µM) | COC[C@H]1N(c2nc(-c3cccc(C)c3OCc3ccc4c(c3C)CCN(C3CCOCC3)C4)cs2)C[C@@H]2C[C@@]21C(=O)O [Compound 159]
6 | 7.80 | <24% | 110 µg/mL (≈ 193 µM) | 95 µg/mL (≈ 167 µM) | 68 µg/mL (≈ 119 µM) | COc1cc(COc2c(C)cccc2-c2cccc(N3C[C@@H]4C[C@]4(C(=O)O)C3)n2)cc2c1CN(C1CCOCC1)CC2 [Compound 27]
7 | 7.54 | <24% | 48 µg/mL (≈ 83.7 µM) | < 0.1 µg/mL | 9.2 µg/mL (≈ 16 µM) | Cc1ccc(OCc2ccc3c(c2)CCN(C2CCOCC2)C3=O)c(-c2csc(N3CC[C@@]4(C(=O)O)C[C@H]4C3)n2)c1 [Compound 192, (1R,6S)-3-(4-{5-Methyl-2-[1-oxo-2-(tetrahydro-pyran-4-yl)-1,2,3,4-tetrahydro-isoquinolin-6-ylmethoxy]-phenyl}-thiazol-2-yl)-3-aza-bicyclo[4.1.0]heptane-6-carboxylic acid]
8 | 7.02 | <24% | 130 µg/mL (≈ 217 µM) | 130 µg/mL (≈ 217 µM) | 130 µg/mL (≈ 217 µM) | COC[C@@H]1N(c2cccc(-c3cccc(C)c3OCc3cc(C)c4c(c3)CCN(C3CCOCC3)C4)n2)C[C@H]2C[C@]21C(=O)O [Compound 63]
9 | 7.74 | <24% | 110 µg/mL (≈ 184 µM) | 96 µg/mL (≈ 161 µM) | 77 µg/mL (≈ 129 µM) | COC[C@H]1N(c2cccc(-c3cccc(C)c3OCc3ccc4c(c3C)CCN(C3CCOCC3)C4)n2)C[C@@H]2C[C@@]21C(=O)O [Compound 46]
10 | 8.52 | 59% | 120 µg/mL (≈ 204 µM) | 69 µg/mL (≈ 117 µM) | 14 µg/mL (≈ 23.8 µM) | Cc1cc(COc2c(C)cccc2-c2csc(N3CC[C@@]4(C(=O)O)C[C@H]4C3)n2)c(C)c2c1CN(C1CCCOC1)CC2 (stereo partly shown) [Compound 99]
11 | 8.22 | <24% | 120 µg/mL (≈ 204 µM) | 20 µg/mL (≈ 34 µM) | 2.9 µg/mL (≈ 4.93 µM) | Cc1ccc(OCc2ccc3c(c2C)CCN(C2CCOCC2)CC3)c(-c2csc(N3CC[C@@]4(C(=O)O)C[C@H]4C3)n2)c1 [Compound 130]

From patent publication US9353090B2, “Heterocyclic carboxylic acids as activators of soluble guanylate cyclase” (Boehringer Ingelheim International GmbH, priority 2014, dated 2016)
